Measured values published in ChEMBL document CHEMBL4477276, “Synthesis and aromatase inhibitory evaluation of 4-N-nitrophenyl substituted amino-4H-1,2,4-triazole derivatives” (Bioorg Med Chem, 2016).
pIC50: −log10 of the molar value.

Target: T1, Aromatase (Homo sapiens, UniProt P11511)
T1 sequence (P11511 whole entry): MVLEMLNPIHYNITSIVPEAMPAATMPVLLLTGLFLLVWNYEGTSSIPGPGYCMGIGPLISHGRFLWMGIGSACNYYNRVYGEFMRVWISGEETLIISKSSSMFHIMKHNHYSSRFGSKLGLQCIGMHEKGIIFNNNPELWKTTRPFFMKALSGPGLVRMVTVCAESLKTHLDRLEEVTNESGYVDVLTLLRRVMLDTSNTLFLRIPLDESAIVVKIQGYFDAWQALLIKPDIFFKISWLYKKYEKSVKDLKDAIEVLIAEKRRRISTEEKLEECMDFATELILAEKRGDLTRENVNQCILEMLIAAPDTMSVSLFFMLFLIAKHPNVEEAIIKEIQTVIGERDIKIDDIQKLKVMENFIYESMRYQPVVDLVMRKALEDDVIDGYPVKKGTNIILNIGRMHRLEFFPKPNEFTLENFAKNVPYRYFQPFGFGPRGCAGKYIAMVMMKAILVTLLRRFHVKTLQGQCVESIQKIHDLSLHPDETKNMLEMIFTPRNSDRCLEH
Assay: Inhibition of recombinant human aromatase using 7-methoxy-trifluoromethylcoumarin as substrate incubated for 30 mins by fluorescence microplate reader analysis

Structure (SMILES)	pIC50
O=[N+]([O-])c1ccc(N(Cc2cccc(C(F)(F)F)c2)n2cnnc2)cc1Br	7.76
O=[N+]([O-])c1ccc(N(Cc2ccc(C(F)(F)F)cc2)n2cnnc2)cc1Br	7.36
O=[N+]([O-])c1ccc(N(Cc2ccccc2)n2cnnc2)cc1Br	7.40
N#Cc1cccc(CN(c2ccc([N+](=O)[O-])c(-c3ccccc3)c2)n2cnnc2)c1	7.14
O=[N+]([O-])c1ccc(Nn2cnnc2)cc1Br	7.04
O=[N+]([O-])c1ccc(N(Cc2cccc(C(F)(F)F)c2)n2cnnc2)cc1-c1ccccc1	7.76
O=[N+]([O-])c1ccc(N(Cc2ccc(C(F)(F)F)cc2)n2cnnc2)cc1-c1ccccc1	7.84
O=[N+]([O-])c1cccc(CN(c2ccc([N+](=O)[O-])c(-c3ccccc3)c2)n2cnnc2)c1	7.71
N#Cc1ccccc1CN(c1ccc([N+](=O)[O-])c(Br)c1)n1cnnc1	7.23
N#Cc1cccc(CN(c2ccc([N+](=O)[O-])c(Br)c2)n2cnnc2)c1	7.24
O=[N+]([O-])c1ccc(N(Cc2ccc(Cl)cc2)n2cnnc2)cc1Br	8.04
O=[N+]([O-])c1cccc(CN(c2ccc([N+](=O)[O-])c(Br)c2)n2cnnc2)c1	7.92
O=[N+]([O-])c1ccc(N(Cc2ccccc2)n2cnnc2)cc1-c1ccccc1	7.52
